Measured values published in ChEMBL document CHEMBL2016567, “Novel acridinedione derivatives: design, synthesis, SIRT1 enzyme and tumor cell growth inhibition studies” (Bioorg Med Chem Lett, 2012).
Activity calls are given as the source filed them. The calls are words filed in the database; no cut-off is given here.

Columns and labels:
[1] = biological target: T1, NAD-dependent protein deacetylase sirtuin-1 (Homo sapiens, UniProt Q96EB6); assay: Inhibition of human SIRT1 using Fluor-de-Lys as substrate
T1 sequence (Q96EB6 whole entry): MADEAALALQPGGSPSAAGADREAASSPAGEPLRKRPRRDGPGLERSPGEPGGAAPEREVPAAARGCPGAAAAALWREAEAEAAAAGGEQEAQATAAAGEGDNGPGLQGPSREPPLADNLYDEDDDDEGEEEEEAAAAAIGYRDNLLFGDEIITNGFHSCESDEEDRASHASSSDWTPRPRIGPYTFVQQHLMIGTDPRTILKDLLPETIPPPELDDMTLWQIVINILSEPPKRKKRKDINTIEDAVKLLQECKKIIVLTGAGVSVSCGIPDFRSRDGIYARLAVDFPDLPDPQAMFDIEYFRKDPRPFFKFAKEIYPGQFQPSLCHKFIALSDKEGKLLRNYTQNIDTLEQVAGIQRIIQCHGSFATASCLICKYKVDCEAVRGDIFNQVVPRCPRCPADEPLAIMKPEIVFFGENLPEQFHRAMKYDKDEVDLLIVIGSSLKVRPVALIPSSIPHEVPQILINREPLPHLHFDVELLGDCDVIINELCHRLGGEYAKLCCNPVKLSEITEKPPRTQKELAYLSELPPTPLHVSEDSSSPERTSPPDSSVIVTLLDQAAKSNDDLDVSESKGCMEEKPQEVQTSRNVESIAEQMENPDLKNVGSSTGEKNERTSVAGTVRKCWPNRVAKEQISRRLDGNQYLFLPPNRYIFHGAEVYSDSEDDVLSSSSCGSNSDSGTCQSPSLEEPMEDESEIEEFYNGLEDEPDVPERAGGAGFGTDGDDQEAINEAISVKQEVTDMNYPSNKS

MDA-MB-231 [2] = assay: Growth inhibition of human MDA-MB-231 cells; assay type: functional, cell-based
[3] = biological target: T2, NAD-dependent protein deacetylase sirtuin-1 (Homo sapiens) (UniProt Q96EB6); assay: Inhibition of human SIRT1 using Fluor-de-Lys as substrate at 50 uM
T2 sequence (whole entry): T1 sequence (Q96EB6 whole entry)

HEK293 = assay: Cytotoxicity against human HEK293 cells at 10 uM; assay type: cell-based; conditions: hek293, 10 µM
MDA-MB-231 [4] = assay: Decrease in SIRT1 protein level in human MDA-MB-231 cells after 24 hrs by Western blot analysis; assay type: functional, cell-based
[5] = biological target: T2, NAD-dependent protein deacetylase sirtuin-1 (Homo sapiens); assay: Inhibition of SIRT1 in human MDA-MB-231 cells assessed as increase in p53 acetylation at lysine 382 residue after 24 hrs by Western blot analysis; assay type: cell-based
K562 = assay: Growth inhibition of human K562 cells; assay type: functional, cell-based

IC50 [1]	IC50 (MDA-MB-231 [2])	inhibition [3]	inhibition [5]	IC50 (K562)	SMILES	Activity (HEK293)	Activity (MDA-MB-231 [4])
10.1 µM	0.25 µM	83.2%	Dose-dependent effect	–	CC1(C)CC(=O)C2=C(C1)N(Nc1ccc([N+](=O)[O-])cc1[N+](=O)[O-])C1=C(C(=O)CC(C)(C)C1)C2c1ccccc1OCc1ccccc1	Non-toxic	Dose-dependent effect
–	10 µM	–	–	–	COc1cccc2c1C(=O)c1c(O)c3c(c(O)c1C2=O)C[C@@](O)(C(=O)CO)C[C@@H]3O[C@H]1C[C@H](N)[C@H](O)[C@H](C)O1 [DOXORUBICIN]	Non-toxic	–
–	–	21.5%	–	–	CC1(C)CC(=O)C2=C(C1)N(NC(=O)c1ccccc1)C1=C(C(=O)CC(C)(C)C1)C2c1cccc(OCc2ccccc2)c1	–	–
–	–	39.7%	–	–	CC1(C)CC(=O)C2=C(C1)N(NC(=O)c1ccccc1)C1=C(C(=O)CC(C)(C)C1)C2c1ccccc1OCc1ccccc1	–	–
46 µM	3.16 µM	52%	–	–	CC1(C)CC(=O)C2=C(C1)N(NC(=O)c1ccccc1)C1=C(C(=O)CC(C)(C)C1)C2c1ccc(OCc2ccccc2)cc1	Non-toxic	–
–	–	3.6%	–	–	CC1(C)CC(=O)C2=C(C1)N(NC(=O)c1ccc(Cl)cc1Cl)C1=C(C(=O)CC(C)(C)C1)C2c1ccc(OCc2ccccc2)cc1	–	–
–	–	33.6%	–	–	CC1(C)CC(=O)C2=C(C1)N(NC(=O)c1ccc([N+](=O)[O-])cc1)C1=C(C(=O)CC(C)(C)C1)C2c1cccc(OCc2ccccc2)c1	–	–

The next lines start with the molecule.

SMILES	IC50 [1]	IC50 (MDA-MB-231 [2])	inhibition [3]	inhibition [5]	IC50 (K562)	Activity (HEK293)	Activity (MDA-MB-231 [4])
CC1(C)CC(=O)C2=C(C1)N(Nc1ccccc1)C1=C(C(=O)CC(C)(C)C1)C2c1ccccc1OCc1ccccc1	11.1 µM	50 µM	82.1%	–	–	Non-toxic	–
CC1(C)CC(=O)C2=C(C1)N(Nc1ccc([N+](=O)[O-])cc1[N+](=O)[O-])C1=C(C(=O)CC(C)(C)C1)C2c1ccc(OCc2ccccc2)cc1	43.3 µM	6.63 µM	54.8%	–	–	Non-toxic	–
CC1(C)CC(=O)C2=C(C1)N(NC(=O)c1ccc(Cl)cc1Cl)C1=C(C(=O)CC(C)(C)C1)C2c1cccc(OCc2ccccc2)c1	–	–	4.7%	–	–	–	–
CC1(C)CC(=O)C2=C(C1)N(NC(=O)c1ccncc1)C1=C(C(=O)CC(C)(C)C1)C2c1ccccc1OCc1ccccc1	–	5 µM	72.6%	–	10 µM	Non-toxic	–
COc1ccc(C(=O)NN2C3=C(C(=O)CC(C)(C)C3)C(c3ccc(OCc4ccccc4)cc3)C3=C2CC(C)(C)CC3=O)c(OC)n1	25 µM	0.31 µM	55.1%	–	–	Non-toxic	–
CC1(C)CC(=O)C2=C(C1)N(NC(=O)c1ccncc1)C1=C(C(=O)CC(C)(C)C1)C2c1ccc(OCc2ccccc2)cc1	–	> 50 µM	inactive	–	> 50 µM	Non-toxic	–
CC1(C)CC(=O)C2=C(C1)N(Nc1ccccc1)C1=C(C(=O)CC(C)(C)C1)C2c1ccc(OCc2ccccc2)cc1	43.1 µM	1.38 µM	55.2%	–	–	Non-toxic	–
Cc1ccc(C(=O)Nc2ccc(S(=O)(=O)O)c3cc(S(=O)(=O)O)cc(S(=O)(=O)O)c23)cc1NC(=O)c1cccc(NC(=O)Nc2cccc(C(=O)Nc3cc(C(=O)Nc4ccc(S(=O)(=O)O)c5cc(S(=O)(=O)O)cc(S(=O)(=O)O)c45)ccc3C)c2)c1 [SURAMIN]	–	31.2 µM	53.9%	–	18.5 µM	Non-toxic	–
COc1ccc(C(=O)NN2C3=C(C(=O)CC(C)(C)C3)C(c3cccc(OCc4ccccc4)c3)C3=C2CC(C)(C)CC3=O)c(OC)n1	–	–	35.6%	–	–	–	–
CC1(C)CC(=O)C2=C(C1)N(NC(=O)c1ccc([N+](=O)[O-])cc1)C1=C(C(=O)CC(C)(C)C1)C2c1ccccc1OCc1ccccc1	–	–	39%	–	–	–	–
CC1(C)CC(=O)C2=C(C1)N(NC(=O)c1ccncc1)C1=C(C(=O)CC(C)(C)C1)C2c1cccc(OCc2ccccc2)c1	–	> 50 µM	53.7%	–	10 µM	Non-toxic	–
COc1ccc(C(=O)NN2C3=C(C(=O)CC(C)(C)C3)C(c3ccccc3OCc3ccccc3)C3=C2CC(C)(C)CC3=O)c(OC)n1	–	–	35.2%	–	–	–	–
CC1(C)CC(=O)C2=C(C1)N(Nc1ccccc1)C1=C(C(=O)CC(C)(C)C1)C2c1cccc(OCc2ccccc2)c1	40.1 µM	0.99 µM	51.4%	–	–	Non-toxic	–
CC1(C)CC(=O)C2=C(C1)N(Nc1ccc([N+](=O)[O-])cc1[N+](=O)[O-])C1=C(C(=O)CC(C)(C)C1)C2c1cccc(OCc2ccccc2)c1	–	–	33.2%	–	–	–	–
CC1(C)CC(=O)C2=C(C1)N(NC(=O)c1ccc([N+](=O)[O-])cc1)C1=C(C(=O)CC(C)(C)C1)C2c1ccc(OCc2ccccc2)cc1	–	–	35.6%	–	–	–	–
